This note sets out measurements from US8859511B2, “Proliferation inhibitor of Helicobacter pylori bacteria” (The Noguchi Institute, priority 2008, dated 2014).

In data set [1] the test system is H. pylori bacteria (ATCC 43504). Description: H. pylori bacteria-proliferation inhibitory effect under in vitro (OD values at 600 nm). It is filed as cell-based, Helicobacter pylori.
Data set [2] deals with H. pylori bacteria (ATCC 43504 strain). Description: Count of viable H. pylori bacteria (colony count) from stomach of orally infected meriones unguiculatus. It is filed as in vivo. An excerpt: Antibacterial activities of GlcNAc derivatives towards H. pylori bacteria were investigated under in vivo by an experimental system using meriones unguiclatus infected orally with H. pylori bacteria.
Type strain of H. pylori bacteria (ATCC 43504 strain) was used as strain for infection. After stock strain thereof was recovered in Brain Heart Infusion (BHI) culture medium, which is available from Nissui Pharmaceutical Co., Ltd., including 10% horse serum, which is available from Dainippon Sumitomo Pharma Co., Ltd., and then cultured in the culture medium at 37° C. under microaerophilic condition using a microaerophilic incubator for 3 days. Finally the concentration thereof was adjusted to approximately 5×10^6 colony-forming-unit/mL (CFU/mL).
The meriones unguiculatus were fasted from 24 hours earlier of infection of Helicobacter pylori bacteria to 4 hours later of the infection thereof.
Approximately 1.0 mL of the liquid culture medium including Helicobacter pylori bacteria was administrated orally as 5×10^6 CFU/individual-animal to the fasted meriones unguiculatus. The day of infection was defined as initial day (i.e. Day 0)
Specimens prepared by using GlcNAcl-beta-O-Et of N-acetyl-glucosamine derivative according to following concentration of each group were administered.
Number of animal: 10 animals per one group
Means for administration: dietary administration
Stomach was respectively isolated from thus 10 animals of each group, and added into a centrifuging tube containing 5 mL of a phosphate buffer solution (PBS) to be homogenized with Polytron Homogenizer. 0.1 mL of the obtained homogenate was spread on Poamedia Vi Helico-S agar medium which is available from Eiken Chemical Co., Ltd. And then the bacterium were cultured at 37° C. under microaerophilic condition as same as above-mentioned incubation for culture. The formed violet colonies were counted.
They were carried out by above-mentioned statistical procedure.

Data set [3] can be described thus: Body weight and general remarks of symptoms of infected meriones unguiculatus under dietary administration.
Method: 4 weeks-old male meriones unguiculatus (SPF: specific-pathogen free), which were purchased from Kyudo Co., Ltd. (Br. Yoshitomi), were preliminarily reared for 23 days and then used for the experiments. The meriones unguiculatus were reared temperature of 24 plus or minus 3° C. and under relative humidity of 55 plus or minus 15% in all room for infected animals with conditions of lighting from a.m. 7 to p.m. 7 and ventilating 18 times per hour during preliminarily reared period and experiment period. 2 or 3 meriones unguiculatus were reared in a cage. All meriones unguiculates could freely get purified water as drinkable water and powdery feed MF as dry feed which is available from Oriental Yeast Co., Ltd. Incidentally the meriones unguiculatus were marked by application of dyestuff of picric acid solution for individual discrimination.
Amount of administration: 0.3% of the specimen blended with the powdery feed
The day of infection was defined as day 0. At 1st, 3rd, 6th, 10th, 13th, 17th, 20th, 24th, and 26th days, body weight was measured by a weight scale respectively.
Daily variance of the general remarks of symptoms thereof was observed.
As regards to body weight and count of colonies, average plus/minus standard error thereof in all groups was respectively calculated. […]
Data set [4] is classed as physicochemical. As to the method:
[…]-beta-O-Et in a defined constant amount of the H. pylori bacteria-containing culture medium, which was cultured for 3 days, was measured by high performance liquid chromatography. A concentration of […]-beta-O-Et therein was determined by conversion using a calibration curve which was beforehand prepared from various definite concentrations of standard […]-beta-O-Et and peak areas of high pressure liquid chromatogram thereof. According to the determination, 6% of […]-beta-O-Et in the defined constant amount of the H. pylori bacteria-containing culture medium was reduced in comparison with initial concentration thereof. Consequently it was obvious that 6% of […]-beta-O-Et in the H. pylori bacteria-containing culture medium was decomposed to GlcNAc and ethanol (EtOH).

Take `CC(=O)N[C@H]1C(O)O[C@H](CO)[C@@H](O)[C@@H]1O` (stereo partly drawn) [GlcNAc, N-acetyl-glucosamine, reference compound]: in data set [1] (concentration as high as 50 mM, FIG. 2), the proliferation inhibitory effect result was “does not show any proliferation inhibitory effect”.

On to `CCO[C@H]1O[C@H](CO)[C@@H](O)[C@H](O)[C@H]1NC(C)=O` [GlcNAcl-alpha-O-Et], for which the “effect on inhibiting the proliferation of H. pylori bacteria under in vitro” value in data set [1] (in comparison with GlcNAcl-beta-O-Et, FIG. 6) is “did not almost indicate the effect”. Moreover, the “statistical significant difference of the count of viable bacteria vs control group” value in data set [2] (300 mg/kg/day, FIG. 8) was “not observed at all”. Further, in data set [2] (1000 mg/kg/day, FIG. 8), the “count of H. pylori bacteria reduced in comparison with the control group” value is listed as “⅓” and the “statistical significant difference of the count of viable bacteria vs control group” value is reported as “eventually observed”.

For `CCO[C@@H]1O[C@H](CO)[C@@H](O)[C@H](O)[C@H]1NC(C)=O` [GlcNAcl-beta-O-Et, Ethoxy-2-acetamide-2-deoxy-N-acetyl-beta-D-glucosaminide], the “statistical significant difference of the body weight increase vs control group” value in data set [3] (300 mg/kg/day dietary administration (0.3% in feed), to day 26, FIG. 4) is recorded as “not observed”. The “abnormal general remarks of symptoms” value in data set [3] (300 mg/kg/day dietary administration, daily observation) is “could not be observed”. The “stability in the culture medium” value in data set [4] is recorded as “stable”. For the same compound, in data set [4] (H. pylori bacteria-containing culture medium cultured for 3 days, HPLC), the “reduction of concentration in comparison with initial concentration (decomposed to GlcNAc and ethanol)” value is 6%. In addition, the “proliferation ability of H. pylori bacteria” value in data set [1] (culture medium containing not less than 5 mM) is given as “not more than 50%”; in data set [1] (culture medium containing not less than 20 mM), “not more than 5%”. In data set [1] (not less than 25 or 50 mM, cultivation 96 hours, vs negative control, FIG. 1), the “H. pylori bacteria proliferation inhibited” value is on record as “not less than 50%”. Also, the “count of H. pylori bacteria reduced in comparison with the control group” value is on record as “½ to ⅓” in data set [2] (300 mg/kg/day dietary, all individuals, FIG. 5(a)) and “⅙” in data set [2] (300 mg/kg/day dietary, outliers rejected by Smirnov-Grubbs test, FIG. 5(b)).

Consider `CCO` [ethanol, reference compound], for which the proliferation inhibitory effect result in data set [1] (5 volume % (856 mM), FIG. 3) is recorded as “shows proliferation inhibitory effect barely”.
